Common to all, as to assay: NCI-60 cell line screen, 48 h
Test [1] relates to BT-549.
The test system of test [2] is K562.
For test [3], the system named is MDA-MB-231.
Test [4] has as its system SW-620.
Test [5] relates to SNB-75.
The subject of test [6] is HOP-92.
The subject of test [7] is HCT-15.
Test [8] has as its system UACC-257.
Test [9] concerns HCT-116.
Test [10] concerns CCRF-CEM.
The test system of test [11] is SN12C.
In test [12] the test system is IGROV-1.
The test system of test [13] is HCC 2998.
Test [14] concerns NCI-H226.
The subject of test [15] is NCI/ADR-RES.
Test [16] relates to SF-295.
In test [17] the test system is ACHN.
For test [18], the system named is RPMI-8226.
The subject of test [19] is RXF 393.

Data on eight compounds can be found in ChEMBL document CHEMBL1201862, “PubChem BioAssay data set” (2004).

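1) Cells in 96-well plates. 2) Compound, 48 h, 5 concentrations. 3) Linear interpolation between surrounding doses. 4) Unreached endpoint = highest concentration. The concentration for 50% growth inhibition is given as GI50.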 The source made the active and inactive calls. Rule as the data show it: active = GI50 up to about 1.1 µM and inactive = higher.

With `CCOC(=O)C1=C(N)N(c2ccccc2)/C(=C2\SC(=S)N(c3ccc(C)cc3)C2=O)S1`, the GI50 in test [1] was 90.2 µM (inactive); in test [2] it was 36.8 µM (inactive); in test [3], 22.6 µM (inactive); in test [4], > 100 µM (inactive); in [5], 3.99 µM (inactive); in [6], 30.5 µM (inactive). Further, the GI50 in test [7] is above 100 µM; in test [8] it was 42.3 µM (inactive); in [9] it was 63.2 µM (inactive); in [10] it was 54.2 µM (inactive); in test [11] it was 35.8 µM (inactive); in test [12], > 100 µM (inactive). Moreover, the GI50 was 50.1 µM (inactive) in test [13]; 33.6 µM (inactive) in test [14]; 50.5 µM (inactive) in [15]; 21 µM (inactive) in test [16]; 76 µM (inactive) in test [17]; 93.1 µM (inactive) in test [18].
Take `c1ccc([P+](Cc2ccccc2C[P+](c2ccccc2)(c2ccccc2)c2ccccc2)(c2ccccc2)c2ccccc2)cc1`: the GI50 in test [1] was 65.9 µM (inactive); in [2] it was 42.5 µM (inactive); in [3], > 100 µM (inactive); in [4], > 100 µM (inactive); in test [5] it was > 100 µM (inactive); in [7] it was above 100 µM. The GI50 in test [8] is > 100 µM (inactive); in test [9], 29.4 µM (inactive); in test [11] it was > 100 µM (inactive); in test [12], 66.1 µM (inactive); in test [13], > 100 µM (inactive); in test [14], > 100 µM (inactive). Moreover, the GI50 was > 100 µM (inactive) in test [15]; 57.8 µM (inactive) in test [16]; > 100 µM (inactive) in test [17]; > 100 µM (inactive) in test [19]; 6.03 µM (inactive) in test [18].
Consider `CC(=O)OC(Cc1cc(C=C(C(F)(F)F)C(F)(F)F)cc(C)n1)(C(F)(F)F)C(F)(F)F`, for which the GI50 in test [1] is 1.77 µM (inactive); in test [2], 0.774 µM (active); in [3] it was 1.5 µM (inactive); in [4] it was 1.28 µM (inactive); in test [5], 2.03 µM (inactive); in test [7], 0.975 µM. Besides, the GI50 is 1.74 µM (inactive) in [8]; 1.1 µM (active) in test [9]; 0.217 µM (active) in [10]; 1.44 µM (inactive) in [11]; 1.1 µM (active) in test [12]; 5.2 µM (inactive) in test [13]. In addition, the GI50 is 1.78 µM (inactive) in test [14]; 2.28 µM (inactive) in [15]; 2.82 µM (inactive) in [16]; 1.39 µM (inactive) in test [17]; 0.855 µM (active) in test [19]; 0.656 µM (active) in [18].
For the compound `C/C(=N\NC(=S)NC1CCCC1)c1ccccn1`, the GI50 was 0.472 µM (active) in [1]; < 0.01 µM (active) in [2]; 1.08 µM (active) in test [3]; < 0.01 µM (active) in test [4]; 2.25 µM (inactive) in [5]; 0.0718 µM (active) in [6]. Besides, the GI50 in [7] was below 0.01 µM; in test [8], < 0.01 µM (active); in [9], < 0.01 µM (active); in [10] it was < 0.01 µM (active); in [11], 0.299 µM (active); in test [12] it was < 0.01 µM (active). Besides, the GI50 is 0.515 µM (active) in test [13]; 0.0416 µM (active) in test [14]; < 0.01 µM (active) in [15]; 0.223 µM (active) in test [16]; < 0.01 µM (active) in test [17]; < 0.01 µM (active) in test [18].
Take `CCCCCCCCCCCCCCCCCCOC(COP(=O)(O)OCC1OC(n2cc(F)c(=O)[nH]c2=O)CC1O)COP(=O)(O)OCC1OC(n2ccc(N)nc2=O)C(O)C1O` (stereo not given): the GI50 in [1] was 18.5 µM (inactive); in [2], > 32.2 µM (inactive); in test [3], > 100 µM (inactive); in test [4] it was 60.7 µM (inactive); in test [5] it was 22.6 µM (inactive); in [7] it was 31.4 µM. Also, the GI50 in test [8] is > 79.3 µM (inactive); in test [9] it was 6.19 µM (inactive); in test [10], 4.81 µM (inactive); in test [11], 23.9 µM (inactive); in test [12] it was 13.6 µM (inactive); in [13], 0.419 µM (active). The GI50 in [14] is > 87.1 µM (inactive); in test [15] it was 6.49 µM (inactive); in test [16] it was 2.58 µM (inactive); in [17] it was 0.474 µM (active); in test [19] it was 16.4 µM (inactive); in test [18], 10.9 µM (inactive).
`CCOC(=O)c1c(C)cc(=O)n2c1[nH]c1ccccc12`: the GI50 in test [1] was > 100 µM (inactive); in test [2], 50.9 µM (inactive); in test [3], 36.6 µM (inactive); in test [4], > 100 µM (inactive); in [6] it was > 100 µM (inactive); in test [7], 50.9 µM. For the same compound, the GI50 was > 100 µM (inactive) in [8]; 57.1 µM (inactive) in test [9]; > 100 µM (inactive) in test [10]; 37.4 µM (inactive) in test [11]; > 100 µM (inactive) in test [12]; 78.7 µM (inactive) in [13]. The GI50 in test [14] was > 100 µM (inactive); in test [15], > 100 µM (inactive); in test [16], 74.6 µM (inactive); in [17] it was 42.5 µM (inactive); in [19] it was > 100 µM (inactive).
Consider `CCOC(=O)C1(NC(=O)OC(C)(C)C)CCc2[nH]oc(=O)c2C1` (stereo not given), for which the GI50 in test [1], in test [2], in [3], in test [4], in test [5] and in test [6] was > 100 µM (inactive) in each case. The GI50 in test [7] is above 100 µM; in [8], > 100 µM (inactive); in test [9] it was > 100 µM (inactive); in test [10], > 100 µM (inactive); in test [11], > 100 µM (inactive); in test [12] it was > 100 µM (inactive). Also, the GI50 in test [13], in [14], in test [15], in test [16], in test [17] and in test [18] was > 100 µM (inactive) in each case.
In the case of `CC(C)Oc1ccc2c(c1)OCC1Cc3ccccc3OC21` (stereo not given), the GI50 was 58.2 µM (inactive) in [1]; 88.1 µM (inactive) in test [2]; > 100 µM (inactive) in test [3]; > 100 µM (inactive) in test [4]; > 100 µM (inactive) in [6]; 18.3 µM in test [7]. The GI50 was 33.7 µM (inactive) in [8]; > 100 µM (inactive) in test [9]; > 100 µM (inactive) in test [10]; > 100 µM (inactive) in [11]; > 100 µM (inactive) in test [12]; 96.8 µM (inactive) in test [13]. The GI50 in [14] is > 100 µM (inactive); in [15] it was 71.9 µM (inactive); in test [16], 63.2 µM (inactive); in [18], 52.8 µM (inactive).
